These results are taken from patent US7470680B2, “Constrained compounds as CGRP-receptor antagonists” (Bristol-Myers Squibb Company, priority 2006, dated 2008).

Molecules are shown by their SMILES.

The target of assay [1] is T1, CGRP receptor (Homo sapiens, UniProt O60894+Q16602). The experiment in a line: CGRP radioligand binding assay ([125I]-CGRP displacement, SK-N-MC homogenate). The conditions noted are these: displacement of [125I]-CGRP, SK-N-MC membranes. Set-up: endogenous in cells; host or cells: SK-N-MC cells (homogenate/membrane pellet). As for the experimental part: CGRP Binding Assay. Tissue Culture. SK-N-MC cells were grown at 37° C. in 5% CO2 as a monolayer in medium consisting of MEM with Earle's salts and L-glutamine (Gibco) supplemented with 10% fetal bovine serum (Gibco). Cell Pellets. The cells were rinsed twice with phosphate-buffered saline (155 mM NaCl, 3.3 mM Na2HPO4, 1.1 mM KH2PO4, pH 7.4), and incubated for 5-10 min. at 4° C. in hypotonic lysis buffer consisting of 10 mM Tris (pH 7.4) and 5 mM EDTA. The cells were transferred from plates to polypropylene tubes (16×100 mm) and homogenized using a polytron. Homogenates were centrifuged at 32,000×g for 30 min. The pellets were resuspended in cold hypotonic lysis buffer with 0.1% mammalian protease inhibitor cocktail (Sigma) and assayed for protein concentration. The SK-N-MC homogenate was then aliquoted and stored at −80° C. until needed.
T1 sequence (Q16602 23-461): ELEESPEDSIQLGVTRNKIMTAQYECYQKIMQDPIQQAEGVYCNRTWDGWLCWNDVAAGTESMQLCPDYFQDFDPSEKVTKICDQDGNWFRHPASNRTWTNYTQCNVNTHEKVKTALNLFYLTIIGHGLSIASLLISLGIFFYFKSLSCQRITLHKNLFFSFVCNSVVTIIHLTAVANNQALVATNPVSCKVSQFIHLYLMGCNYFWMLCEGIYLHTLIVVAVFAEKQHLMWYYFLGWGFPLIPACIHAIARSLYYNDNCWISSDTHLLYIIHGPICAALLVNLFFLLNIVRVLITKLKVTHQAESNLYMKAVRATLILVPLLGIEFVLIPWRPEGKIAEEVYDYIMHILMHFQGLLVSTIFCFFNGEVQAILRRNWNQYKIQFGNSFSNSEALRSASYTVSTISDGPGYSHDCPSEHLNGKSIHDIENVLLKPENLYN
T1 sequence (O60894 27-148): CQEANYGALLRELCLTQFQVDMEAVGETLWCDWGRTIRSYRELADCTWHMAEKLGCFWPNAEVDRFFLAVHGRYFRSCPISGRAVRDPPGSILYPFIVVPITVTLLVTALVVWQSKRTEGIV
Radioligand Binding Assay. The compounds of invention were solubilized and carried through serial dilutions using 100% DMSO. Aliquots from the compound serial dilutions were further diluted 25 fold into assay buffer (50 mM Tris-Cl pH 7.5, 5 mM MgCl2, 0.005% Triton X-100) and transferred (volume 50 μl) into 96 well assay plates. [^125I]-CGRP (Amersham Biosciences) was diluted to 60 pM in assay buffer and a volume of […] was added to each well. SK-N-MC pellets were thawed, diluted in assay buffer with fresh 0.1% mammalian protease inhibitor cocktail (Sigma), and homogenized again. SK-N-MC homogenate (5 μg/well) was added in a volume of 100 μl. The assay plates were then incubated at room temperature for 2 h. Assays were stopped by addition of excess cold wash buffer (20 mM Tris-Cl pH 7.5, 0.1% BSA) immediately followed by filtration over glass fiber filters (Whatman GF/B) previously soaked in 0.5% PEI. Non-specific binding was defined with 1 μM beta-CGRP. Protein bound radioactivity was determined using a gamma or scintillation counter. The IC50 was defined as the concentration of a compound of invention required to displace 50% of radioligand binding.
(In general: Displacement assays read how much labelled ligand stays bound in the presence of the test substance.)

In assay [2] the target is T1, CGRP receptor. The experiment in a line: Cyclic AMP functional antagonism assay in SK-N-MC cells. Type of assay: cell-based. Details: SK-N-MC cells that endogenously express the human CGRP receptor; endogenous in cells; host or cells: SK-N-MC cells. The conditions noted are these: Table 2; inhibition of 0.3 nM CGRP-induced cAMP in SK-N-MC cells; read-out: cAMP Function IC50. As to the method:
Cyclic AMP Functional Antagonism Assay. Antagonism of the compounds of invention was determined by measuring the formation of cyclic AMP (adenosine 3′5′-cyclic monophosphate) in SK-N-MC cells that endogenously express the human CGRP receptor. CGRP receptor complex is coupled with Gs protein and CGRP binding to this complex leads to the cyclic AMP production via Gs-dependent activation of an adenylate cyclase (Juaneda C. et al., TiPS, 2000; 21:432-438). Consequently, CGRP receptor antagonists inhibit CGRP—induced cyclic AMP formation in SK-N-MC cells (Doods H, et al., Br J Pharmacol, 2000; 129(3):420-423). For cyclic AMP measurements SK—N-MC cells were incubated with 0.3 nM CGRP alone or in the presence of various concentrations of the compounds of invention for 30 min at room temperature. Compounds of invention were pre-incubated with SK—N-MC cells for 15 min before the addition of CGRP to allow receptor occupancy (Edvinsson et al., Eur J Pharmacol, 2001, 415:39-44). Cyclic AMP was extracted using the lysis reagent and its concentration was determined by radioimmunoassay using RPA559 cAMP SPA Direct Screening Assay Kit (Amersham Pharmacia Biotech). IC50 values were calculated using Excel fit.

Turning to `O=C(N[C@@H]1Cc2cc(Cl)c3[nH]ncc3c2CN(Cc2ccccc2)C1=O)N1CCC(N2Cc3ccccc3NC2=O)CC1`, the IC50 in assay [1] (Table 2) and in assay [2] was 0.01 to 10 nM each time. With `CC(C)(C)CCN1Cc2c(ccc3[nH]ncc23)C[C@@H](NC(=O)N2CCC(N3Cc4ccccc4NC3=O)CC2)C1=O`, the IC50 in assay [1] (Table 2) and in assay [2] was 0.01 to 10 nM each time.

In the case of `CC(C)(C)CN1Cc2c(cc(Cl)c3[nH]ncc23)C[C@@H](NC(=O)N2CCC(N3Cc4ccccc4NC3=O)CC2)C1=O`, the concentration for half-maximal inhibition (IC50) in assay [1] (Table 2) and in assay [2] was 0.01 to 10 nM in each case.

Take `CC(C)(C)CN1Cc2c(cc(Cl)c3[nH]ncc23)C[C@@H](CC(=O)N2CCC(N3Cc4ccccc4NC3=O)CC2)C1=O`: the IC50 in assay [1] (Table 2) and in assay [2] was 0.01 to 10 nM each time. Consider `CC(C)(C)CN1Cc2c(ccc3[nH]ncc23)CC(NC(=O)N2CCC(N3Cc4ccccc4NC3=O)CC2)C1=O` (stereo not shown), for which the IC50 in assay [1] (Table 2) and in assay [2] was 0.01 to 10 nM each time. Consider `O=C(NC1Cc2ccc3[nH]ncc3c2CN(CCc2ccncc2)C1=O)N1CCC(N2Cc3ccccc3NC2=O)CC1` (stereo not shown), for which the IC50 in assay [1] (Table 2) and in assay [2] was 0.01 to 10 nM each time.

As to `O=C(N[C@@H]1Cc2cc3cn[nH]c3cc2CN(Cc2ccccc2)C1=O)N1CCC(N2Cc3ccccc3NC2=O)CC1`, the IC50 in assay [1] (Table 2) was in the range of 0.01 to 10 nM. Turning to `CC(C)(C)CN1Cc2c(cc(Cl)c3[nH]ncc23)C[C@@H](CC(=O)N2CCC(N3Cc4cccc(F)c4NC3=O)CC2)C1=O`, the IC50 in assay [1] (Table 2) and in assay [2] was 0.01 to 10 nM throughout. `CC(C)(C)CN1Cc2c(cc(Cl)c3[nH]ncc23)C[C@@H](CC(=O)N2CCC(N3Cc4ccccc4CC3=O)CC2)C1=O`: the IC50 in assay [1] (Table 2) and in assay [2] was 0.01 to 10 nM in each case. Regarding `CC(C)(C)CN1Cc2c(cc(Cl)c3[nH]ncc23)C[C@@H](CC(=O)N2CCC(c3cc4ccccc4[nH]c3=O)CC2)C1=O`, the IC50 in assay [1] (Table 2) and in assay [2] was 0.01 to 10 nM each time. With `CC(C)(C)CN1Cc2c(cc(Cl)c3[nH]ncc23)C[C@@H](CC(=O)N2CCC(n3cc(-c4ccccc4)[nH]c3=O)CC2)C1=O`, the IC50 in assay [1] (Table 2) and in assay [2] was 0.01 to 10 nM in each case. On to `CC(C)(C)CN1Cc2c(cc(Cl)c3[nH]ncc23)C[C@@H](CC(=O)N2CCC(n3cc(-c4ccccn4)[nH]c3=O)CC2)C1=O`, for which the IC50 in assay [1] (Table 2) and in assay [2] was 0.01 to 10 nM each time. Turning to `CC(C)(C)CN1Cc2c(cc(Cl)c3[nH]ncc23)C[C@@H](CC(=O)N2CCC3(CC2)NC(=O)Nc2ccccc23)C1=O`, the IC50 in assay [1] (Table 2) and in assay [2] was 0.01 to 10 nM in each case.

Consider `O=C(C[C@@H]1Cc2cc(Cl)c3[nH]ncc3c2CN(Cc2ccncc2)C1=O)N1CCC(N2Cc3ccccc3NC2=O)CC1`, for which the IC50 in assay [1] (Table 2) and in assay [2] was 0.01 to 10 nM in each case.

As for `O=C(C[C@@H]1Cc2cc(Cl)c3[nH]ncc3c2CN(Cc2ccncc2)C1=O)N1CCC(N2Cc3cccc(F)c3NC2=O)CC1`, the IC50 in assay [1] (Table 2) and in assay [2] was 0.01 to 10 nM each time.

Turning to `O=C(C[C@@H]1Cc2cc(Cl)c3[nH]ncc3c2CN(Cc2ccncc2)C1=O)N1CCC(c2cc3ccccc3[nH]c2=O)CC1`, the half-maximal inhibitory concentration (IC50) in assay [1] (Table 2) and in assay [2] was 0.01 to 10 nM in each case. Take `O=C(C[C@@H]1Cc2cc(Cl)c3[nH]ncc3c2CN(Cc2ccncc2)C1=O)N1CCC(n2cc(-c3ccccc3)[nH]c2=O)CC1`: the half-inhibitory concentration (IC50) in assay [1] (Table 2) and in assay [2] was 0.01 to 10 nM each time. With `O=C(C[C@@H]1Cc2cc(Cl)c3[nH]ncc3c2CN(Cc2ncc[nH]2)C1=O)N1CCC(N2Cc3ccccc3NC2=O)CC1`, the IC50 in assay [1] (Table 2) and in assay [2] was 0.01 to 10 nM throughout. In the case of `O=C(C[C@@H]1Cc2cc(Cl)c3[nH]ncc3c2CN(CC(F)(F)F)C1=O)N1CCC(c2cc3cccc(F)c3[nH]c2=O)CC1`, in assay [1] (Table 2), the IC50 is 0.01 to 10 nM. Same read-out and setting: under `CC(C)(C)CN1Cc2c(cc(Br)c3[nH]ncc23)C[C@@H](CC(=O)N2CCC(c3cc4ccccc4[nH]c3=O)CC2)C1=O` stands 0.01 to 10 nM; under `O=C(C[C@@H]1Cc2cc(Br)c3[nH]ncc3c2CN(CC(F)(F)F)C1=O)N1CCC(c2cc3cccnc3[nH]c2=O)CC1`, 0.01 to 10 nM; under `O=C(C[C@@H]1Cc2cc(Br)c3[nH]ncc3c2CN(CC(F)(F)F)C1=O)N1CCC(c2cc3ccccc3[nH]c2=O)CC1`, 0.01 to 10 nM. `CC(C)(C)CN1Cc2c(cc(Cl)c3[nH]ncc23)C[C@@H](N/C(=N/C#N)N2CCC(c3cc4ccccc4[nH]c3=O)CC2)C1=O` registered an IC50 in assay [1] (Table 2) of 0.01 to 10 nM. Still for that read-out and setting: under `Cc1cc2c(c3cn[nH]c13)CN(CC(C)(C)C)C(=O)[C@H](CC(=O)N1CCC(c3cc4ccccc4[nH]c3=O)CC1)C2` stands 0.01 to 10 nM; under `Cc1cc2c(c3cn[nH]c13)CN(CC(F)(F)F)C(=O)[C@H](CC(=O)N1CCC(c3cc4ccccc4[nH]c3=O)CC1)C2`, 0.01 to 10 nM. `CCc1cc2c(c3cn[nH]c13)CN(CC(F)(F)F)C(=O)[C@H](CC(=O)N1CCC(c3cc4cccc(F)c4[nH]c3=O)CC1)C2` returned an IC50 in assay [1] (Table 2) of 10 to 100 nM. On the same count and under the same terms, in the case of `O=C(C[C@@H]1Cc2cc(Br)c3[nH]ncc3c2CN(CC2CC2)C1=O)N1CCC(c2cc3ccccc3[nH]c2=O)CC1` it was 0.01 to 10 nM; in that of `COCCN1Cc2c(cc(Br)c3[nH]ncc23)C[C@@H](CC(=O)N2CCC(c3cc4ccccc4[nH]c3=O)CC2)C1=O`, 0.01 to 10 nM. The same measure, in the same setting: under `CC(C)(C)CN1Cc2c(cc(Cl)c3[nH]ncc23)C[C@@H](CC(=O)N2CCC(c3cc4cc(F)c(F)cc4[nH]c3=O)CC2)C1=O` stands 10 to 100 nM. Still for that read-out and setting: in the case of `CC(C)(C)CN1Cc2c(cc(Cl)c3[nH]ncc23)C[C@@H](CC(=O)N2CCC(c3cc4ccc(Cl)cc4[nH]c3=O)CC2)C1=O` it was 0.01 to 10 nM; in that of `CC(C)(C)CN1Cc2c(cc(Cl)c3[nH]ncc23)C[C@@H](CC(=O)N2CCC(c3cc4ccc(F)cc4[nH]c3=O)CC2)C1=O`, 0.01 to 10 nM. In turn, `CC(C)(C)CN1Cc2c(cc(Cl)c3[nH]ncc23)C[C@@H](CC(=O)N2CCC(c3cc4sc(Br)cc4[nH]c3=O)CC2)C1=O` (mixture of isomers) displayed an IC50 in assay [1] (Table 1) of 0.01 to 10 nM. Still for that read-out and setting: in the case of `CC(C)(C)CN1Cc2c(cc(Cl)c3[nH]ncc23)C[C@@H](CC(=O)N2CCC(c3cc4scc(Cl)c4[nH]c3=O)CC2)C1=O` (mixture of isomers) it was 0.01 to 10 nM.

On to `CC(C)(C)CN1Cc2c(ccc3[nH]ncc23)C[C@@H](CC(=O)N2CCC(N3Cc4ccccc4NC3=O)CC2)C1=O` [drawing 84], for which the IC50 in assay [2] was 0.01 to 10 nM. In turn, `CC(C)(C)CN1Cc2c(ccc3[nH]ncc23)C[C@@H](CC(=O)N2CCC(N3Cc4ccccc4NC3=O)CC2)C1=O` [drawing 135] registered an IC50 in assay [1] (Table 2) of 100 to 1000 nM.

A word on the IC50: it is the concentration that gives 50% inhibition.
